Test results as given in US8329863B2, “Gonadotropin releasing hormone antagonists” (Oakwood Laboratories, LLC, priority 2004, dated 2012).
Like-named read-outs stand apart in the source and are kept apart here. Square brackets hold non-standard residues; d marks the D form. Peptide text beside a SMILES is read from it. * marks the point of attachment. dPhe(4-Cl) = N[C@H](Cc1ccc(Cl)cc1)C(=O)O; Nicotinoyl(6-NH2) = Nc1ccc(C(=O)*)cn1; d1Nal = N[C@H](Cc1cccc2ccccc12)C(=O)O; Lys(iPr) = CC(C)NCCCC[C@H](N)C(=O)O; d3Pal = N[C@H](Cc1cccnc1)C(=O)O; Picolinoyl = O=C(c1ccccn1)*; dOrn = NCCC[C@@H](N)C(=O)O

Experiments:
[1] = Water solubility at room temperature; format: physicochemical
Experimental: Solubility of the novel GnRH antagonist was compared with that of orntide acetate at room temperature. In this experiment, 50 mg of the novel GnRH antagonist was weighed into a small glass container and 2 mL of purified water was added to it. […] An additional 3 mL of water was added, the solution mixed, and the pH was determined: 5.4. The same procedure was used to test the solubility of orntide acetate (known in the art as ornirelix).
Separately, another 50 mg aliquot was weighed out and 1 ml of water was added. This also dissolved. This is 50 mg/mL in concentration, which is 10 times what is possible to dissolve with orntide acetate.

testosterone = assay: Testosterone suppression in vivo in the standard experimental rat model; design: species or system male Sprague Dawley rats; conditions: subcutaneous
Experimental: Briefly, male Sprague Dawley rats weighing approximately 300 g were purchased from Harlan (Indianapolis, Ind.) and used immediately after the quarantine period required by a University of Kentucky Animal Research Facility approved protocol.
The evaluation was conducted in two groups of rats. Group 1 included 6 rats to be administered with the novel GnRH antagonist. The other group was a control group consisting of 2 rats. The novel GnRH antagonist was administered subcutaneously (scapulae). Blood samples (1 mL) for testosterone level determinations were collected from the tail vein at 0, 1, 3, 6, 12, 24, and 48 hours. Serum was extracted by centrifugation at 2000 rpm for 15 min and stored at −20 C until determination of testosterone/LH levels. Rat plasma testosterone was determined using Active™ Testosterone RIA DSL-4000 kits purchased from Diagnostic Systems, Inc. Webster, Tex. To effect a sufficient washout period the doses were administered at weekly intervals.
A total of six rats were used for each dose tested. In the first week, each rat received a single dose of 15 μg. In the second week, the dose increased to 30 μg. Next, in the third week, each rat received a single dose of 60 μg. Table 2 is the control rat group with a total of 2 rats that received only vehicle.

Row | solubility ([1]; aqueous media, even at a pH lower than 5, read-out: solubility in aqueous media) [µg/mL] | solubility ([1]; water, pH 5, at a pH of 5, read-out: water solubility) [µg/mL] | Compound | gelling in aqueous media ([1]; at concentrations less than 5 mg/mL) | testosterone level reached after the castration period (testosterone; 15 μg/rat, after about 12 hours) [ng/mL] | duration of chemical castration of testosterone (≦0.5 ng/ml) (testosterone; 15 μg/rat, single dose) | serum testosterone level at 6 hours (testosterone; 15 μg/rat, single dose, week 1, mean of 6 rats) [ng/mL] | testosterone level by 24 hours (testosterone; 30 μg/rat, single dose) | duration of testosterone suppression (testosterone; 30 μg/rat, single dose, week 2) | time to dissolve ([1]; 50 mg in 2 mL purified water, relatively gentle mixing, room temperature) | pH of the solution ([1]; 50 mg in 5 mL water (10 mg/mL))
1 | < 5000 | < 5000 | CC(=O)N[C@H](Cc1cccc2ccccc12)C(=O)N[C@H](Cc1ccc(Cl)cc1)C(=O)N[C@H](Cc1cccnc1)C(=O)N[C@@H](CO)C(=O)N[C@@H](CCCCNC(=O)c1ccccn1)C(=O)N[C@H](CCCNC(=O)c1ccc(N)nc1)C(=O)N[C@@H](CC(C)C)C(=O)N[C@@H](CCCCNC(C)C)C(=O)N1CCC[C@H]1C(=O)N[C@H](C)C(N)=O [orntide acetate, DNal^1, DpCIPhe^2, D3Pal^3 Ser^4, PicLys^5, D(6ANic)Orn^6, Leu^7, IprLys^8, Pro^9, DAla^10-NH2] (Ac-[d1Nal][dPhe(4-Cl)][d3Pal]SK(Picolinoyl)[dOrn](Nicotinoyl(6-NH2))L[Lys(iPr)]P[dA]-NH2; N-terminus and C-terminus assumed) | tends to gel even at that low concentration | – | – | – | – | – | – | –
2 | – | – | AcDNal^1, DpCIPhe^2, D3Pal^3 Ser^4, NicLys^5, D(6ANic)Orn^6, Leu^7, IprLys^8, Pro^9, DAla^10NH2 [novel GnRH antagonist] | – | 1.5 | about 12 hours | 0.2 | greater than 0.5 ng/mL | at least 12 hours | less than 30 seconds | 5.4
